From patent US11384358B2, “Method of regulating gene expression in a cell” (President and Fellows of Harvard College, priority 2017, dated 2022)

Legend:
Type in all cases: cell-based
L. jensenii = test: susceptibility of Lactobacillus strains to tetracycline (growth inhibition)
Description: (§1) An expression system that is inducible by tetracycline in Lactobacilli is described as follows. […] A BLAST analysis of the TetR protein sequence as well as the TetA tetracycline efflux pump that drives resistance was performed, across all available Lactobacillus proteomes and potential homologs in L. lactis, and L. plantarum were identified, because they carry a transferrable plasmid harboring tetM and tetS genes.

L. rhamnosus GG [1] = test: as above
Description: as §1

L. gasseri = test: as above
L. crispatus = test: as above
[2] = tested on: TetR regulon paired with slpA-tetO variant 2; test: aTc induction of fluorescent reporter, TetR regulon (L. plantarum promoter) paired with slpA-tetO variant 2; details: L. rhamnosus GG; 0.3125-10 ng/mL aTc; early exponential, mid-exponential and stationary phase; FIG. 1
Description: To evaluate the functionality of the aTc induction system described herein in lactic acid bacteria, the TetR regulon described herein is driven by a L. plantarum promoter paired with slpA-tetO variant 2 (current SEQ IDs 1 and 2), into L. rhamnosus GG via electroporation with a high copy plasmid. Sequence verified colonies, as well as colonies harboring a negative control plasmid with no fluorescence reporter, were then picked in triplicate, and used to inoculate liquid cultures that were grown overnight. These overnight cultures were then sub-cultured 1/100 into fresh media, in duplicate—one culture containing 10 ng/mL aTc, the other containing no inducing agent. The culture with inducing agent, was then serially diluted by 50%, 5 times (yielding cultures with 5, 2.5, 1.25, 0.625, and 0.3125 ng/mL of aTc, in addition to the original 10 ng/mL culture). These cultures were then grown to an optical density of 0.2 (to capture lag phase behavior), 0.6 (log phase), and 1.0 (stationary phase), as measured by an optical cell density meter. At each optical density, the fluorescence of all cultures and replicates were measured in absolute units in a fluorimeter. Relative fluorescence units were then computed as a fold change value over the measured fluorescence of the negative control cell cultures that were known to not express fluorescence protein.

[3] = tested on: aTc-inducible expression cassette encoding J3-VHH secretion; test: aTc-induced secretion of HisTagged J3-VHH nanobody, protein gel of purified culture supernatant; details: L. gasseri with inducible cassette (SEQ ID NO: 2); 500 ng/mL aTc added at optical density 0.4; FIG. 17
From the text: According to one aspect, an inducible expression system is used prevent expression during bacterial culture and clone isolation. According to one aspect, expression is controlled and kept off during bacterial culture and clone isolation to avoid or lower or reduce or inhibit secretion-induced toxicity. According to one aspect, the level of a HisTagged, anti-HIV (gp120) camelid nanobody (J3-VHH) purified from culture supernatant, when secretion of protein was driven by an inducible system (SEQ ID NO: 2) was compared to a system using an uncontrolled, constitutive slpA. Cells (in this case, L. gasseri) without an expression cassette (negative control with no protein expected), an aTc-inducible expression cassette encoding J3-VHH secretion, and an equivalent, but constitutive expression cassette, were grown in culture to an optical density of 0.4 (the start of the exponential growth phase, during which time cellular protein production capacity is maximal), and split into two equal volumes—500 ng/mL of aTc was added to one, while the other received no aTc (as an internal negative control to verify functional induction).

[4] = relative expression strength of promoters by fluorescence (FIG. 12)
L. rhamnosus GG [5] = test: promoter variants driving fluorescent reporter in plasmid with no TetR, L. rhamnosus GG
Description: FIG. 11 depicts minimum free energy mRNA structural folding predictions. Each of these variants was then tested in a plasmid with no TetR (meaning the inserted promoters are not repressed, and should be constitutively active), driving a fluorescent reporter. […] Subsequently, this test was replicated in L. rhamnosus GG. […] Therefore, only variant 2 was selected for testing in the presence of TetR. […] See McCracken et al. J Bacteriol 181(20):6569-6572 (1999).

[6] = tested on: TetR regulon paired with slpA-tetO variant 2; test: aTc induction of fluorescent reporter in L. gasseri; details: similar experimental conditions, FIG. 15
L. rhamnosus GG [7] = test: leakage and induction of aTc-inducible slpA promoter variant (FIG. 16)
From the text: An exemplary aTc-inducible slpA promoter variant is provided in SEQ ID NO:15 which includes the alterations above resulting in a combined, maximally repressive variant. In one embodiment, a promoter sequence has at least 85% homology, at least 90% homology, at least 95% homology, at least 97% homology, at least 98% homology or at least 99% homology to SEQ ID NO:15. All of the described alterations work in concert to achieve an inducible system that has essentially undetectable levels of leakage in all phases of growth.

**Q.** Which “tetracycline concentration at which growth is inhibited” value (L. jensenii) does the source give for `CN(C)[C@@H]1C(O)=C(C(N)=O)C(=O)[C@@]2(O)C(O)=C3C(=O)c4c(O)cccc4[C@@](C)(O)[C@H]3C[C@@H]12` [tetracycline] here?
**A.** ≤ 2 mg/mL

**Q.** What about the “tetracycline concentration at which growth is inhibited” value (L. rhamnosus GG [1]) of the same molecule?
**A.** ≤ 2 mg/mL

**Q.** What about the “tetracycline concentration at which growth is inhibited” value (L. gasseri) of the same molecule?
**A.** ≤ 2 mg/mL

**Q.** What about the “tetracycline concentration at which growth is inhibited” value (L. crispatus) of the same molecule?
**A.** ≤ 2 mg/mL

**Q.** Which “repression and expression of a fluorescent protein in the absence and presence of aTc” value [2] does the source give for `Cc1c2c(c(O)c3c(O)cccc13)C(=O)[C@]1(O)C(O)=C(C(N)=O)C(=O)[C@@H](N(C)C)[C@@H]1C2` [aTc, anhydrous tetracycline] here?
**A.** reliable repression and expression of a fluorescent protein

**Q.** What about the “secretion of J3-VHH protein into the supernatant” value [3] of the same molecule?
**A.** secreted any protein into the supernatant

B1: promoter for the ribosomal RNA 3-a from L. plantarum: L. plantarum ribosomal RNA promoter 3-a, used to drive TetR (SEQ ID NO: 1) (nucleic acid)
DNA: TTATAAAAAGATGTTGACAGCTTGTTCTGATGATGATAAACTTTAATAGTTGCGAGAGAAAGAGGAGAAATACTAGATGATGTCTAGATTAGATAAAAGTAAAGTGATTAACAGCGCATTAGAGCTGCTTAATGAGGTCGGAATCGAAGGTTTAACAACCCGTAAACTCGCCCAGAAGCTAGGTGTAGAGCAGCCTACATTGTATTGGCATGTAAAAAATAAGCGGGCTTTGCTCGACGCCTTAGCCATTGAGATGTTAGATAGGCACCATACTCACTTTTGCCCTTTAGAAGGGGAAAGCTGGCAAGATTTTTTACGTAATAACGCTAAAAGTTTTAGATGTGCTTTACTAAGTCATCGCGATGGAGCAAAAGTACATTTAGGTACACGGCCTACAGAAAAACAGTATGAAACTCTCGAAAATCAATTAGCCTTTTTATGCCAACAAGGTTTTTCACTAGAGAATGCATTATATGCACTCAGCGCTGTGGGGCATTTTACTTTAGGTTGCGTATTGGAAGATCAAGAGCATCAAGTCGCTAAAGAAGAAAGGGAAACACCTACTACTGATAGTATGCCGCCATTATTACGACAAGCTATCGAATTATTTGATCACCAAGGTGCAGAGCCAGCCTTCTTATTCGGCCTTGAATTGATCATATGCGGATTAGAAAAACAACTTAAATGTGAAAGTGGGTCTTAA
**Q.** With B1 as the molecule, how does the “expression strength relative to slpA” value [4] read?
**A.** 5 fold weaker than that of slpA

B2: Variant 2: slpA promoter with two tetO boxes after the transcriptional start site (nucleic acid)
DNA: TGCTTGTGGGGGTAAGCGGTAGGTGAAATATTACAAATAGTATTTTTCGGTCATTTTAACTTGCTATTTCTTGAAGAGGTTAGTACAATATGAATCGTGGCCCTATCAGTGATAGAGATCAGGCGCCCTATCAGTGATAGAGATGATTCTTCAGCAAGACTACTACCTCATGAGAGTTATAGACTCATGGATCTTGCTTTGAAGGGTTTTGTACATTATAGGCTCCTATCACATGCTGAACCTATGGCCTATTACATTTTTTTATATTTCAAGGAGGAAAAGACCAC
**Q.** For B2, which “expression versus wild-type promoter” value (L. rhamnosus GG [5]) is on record?
**A.** 3 fold-less than the wild-type promoter

B3: TetR-ClpC-slpA: hybrid regulon: L. fermentum BR11 ClpC promoter fused to slpA 5' untranslated region driving TetR (nucleic acid)
DNA: CTTAAAATATAGTCATAGAATTAGGGCGTCGGTTTTAAAAGTGTGGTAAAATAATGGTCAAGATTAGTGGTAAGTAATAGGACGTGCTTCAGGCGTGTTGCCTGTACGCATGCTGATTCTTCAGCAAGACTACTACCTCATGAGAGTTATAGACTCATGGTATAGGCTCCTATCACATGCTGAACCTATGGCCTATTACATTTTTTTATATTTCAAGGAGGAAAAGACCACATGATGTCACGCTTGGATAAATCAAAAGTTATTAATTCAGCATTGGAATTGTTGAATGAAGTTGGCATTGAAGGCTTGACCACCCGCAAATTGGCACAAAAATTGGGCGTTGAACAACCAACCTTGTATTGGCATGTTAAAAATAAACGCGCATTGTTGGATGCATTGGCAATTGAAATGTTGGATCGCCATCATACCCATTTTTGCCCATTGGAAGGCGAATCATGGCAAGATTTTTTGCGCAATAATGCAAAATCATTTCGCTGCGCATTGTTGTCACATCGCGATGGCGCAAAAGTTCATTTGGGCACCCGCCCAACCGAAAAACAATATGAAACCTTGGAAAATCAATTGGCATTTTTGTGCCAACAAGGCTTTTCATTGGAAAATGCATTGTATGCATTGTCAGCAGTTGGCCATTTTACCTTGGGCTGCGTTTTGGAAGATCAAGAACATCAAGTTGCAAAAGAAGAACGCGAAACCCCAACCACCGATTCAATGCCACCATTGTTGCGCCAAGCAATTGAATTGTTTGATCATCAAGGCGCAGAACCAGCATTTTTGTTTGGCTTGGAATTGATTATTTGCGGCTTGGAAAAACAATTGAAATGCGAATCAGGCTCATAA
**Q.** For B3, which “function of hybrid promoter driving TetR” value [6] is on record?
**A.** functional

B4: SEQ ID NO:15: aTc-inducible slpA promoter variant combining all alterations, maximally repressive (nucleic acid)
DNA: TGCTTGTGGGGGTAAGCGGTAGGTGAAATATTACAAATAGTATTTTTCGGTCATTTTAACTTGCTATTTCTTGAAGAGGTTAGTACAATATGAATCGTGGTCCCTATCAGTGATAGAGATTGACATCCCTATCAGTGATAGAGATATTCTTCAGCAAGACTACTACCTCATGAGAGTTATAGACTCATGGATCTTGCTTTGAAGGGTTTTGTACATTATAGGCTCCTATCACATGCTGAACCTATGGCCTATTACATTTTTTTATATTTCAAGGAGGAAAAGACCAC
**Q.** With B4 as the molecule, how does the “reduction in maximum inducible expression” value (L. rhamnosus GG [7]; FIG. 16) read?
**A.** ~10 ×

**Q.** And the “basal expression in the absence of aTc” value (L. rhamnosus GG [7]; stationary phase for 0, 2.5, 7.5 and 17.5 hours)?
**A.** no basal expression was detected
